The text below walks through data of ChEMBL document CHEMBL5143734, “Seco-Lupane Triterpene Derivatives Induce Ferroptosis through GPX4/ACSL4 Axis and Target Cyclin D1 to Block the Cell Cycle” (J Med Chem, 2022).

What all share (type): functional, cell-based
One assay deals with HepG2. Description: Cytotoxicity against human HepG2 cells assessed as reduction in cell viability by CCK-8 assay. For orientation: Formazan colour is commonly taken as a measure of viable cells.
A further assay relates to PC-3M. The experiment in a line: Cytotoxicity against human PC-3M cells assessed as reduction in cell viability by CCK-8 assay.
The test system of a further assay is MCF7. Description: Cytotoxicity against human MCF7 cells assessed as reduction in cell viability by CCK-8 assay.
Another assay relates to PANC-1. Description: Cytotoxicity against human PANC-1 cells assessed as reduction in cell viability by CCK-8 assay.
The next assay relates to A549. Description: Cytotoxicity against human A549 cells assessed as reduction in cell viability by CCK-8 assay.

As usually defined, the IC50 is the concentration needed to halve the response being measured. For `C=C(C)[C@@H]1CC[C@]2(C(=O)OCCCCCn3cncn3)CC[C@]3(C)[C@H](C[C@H]4OC(=O)C[C@@H](O)[C@]5(C)[C@@H]4[C@@]3(C)CC[C@H]5C(=C)C)[C@@H]12`, the IC50 with HepG2 amounted to 38.3 µM; in the assay on PC-3M, 54.3 µM; with MCF7 it was 108 µM; in the assay with PANC-1, 41.6 µM; in the assay on A549, 18.7 µM.

In the case of `C=C(C)[C@@H]1CC[C@]2(C(=O)OCCCCCn3ccnc3C)CC[C@]3(C)[C@H](C[C@@H](O)[C@@H]4[C@@]5(C)C(CC(=O)OC)OC(C)(C)C5CC[C@]43C)[C@@H]12` (stereo not given in full), the IC50 turned out to be 20.2 µM in the assay on HepG2; 37.8 µM in the assay with PC-3M; 53.8 µM in the assay on MCF7; 43.1 µM in the assay with PANC-1; 34.5 µM with A549.

Take `C=C(C)[C@@H]1CC[C@]2(C(=O)OCCCn3ccnc3C)CC[C@]3(C)[C@H](C[C@H]4OC(=O)C[C@@H](O)[C@]5(C)[C@@H]4[C@@]3(C)CC[C@H]5C(=C)C)[C@@H]12`: the half-inhibitory concentration (IC50) with HepG2 was found to be 14.6 µM; in the assay with PC-3M it was 16 µM; in the assay on MCF7 it was 46.8 µM; in the assay with PANC-1, 24.8 µM; in the assay with A549, 21.5 µM.

Consider `C=C(C)[C@@H]1CC[C@]2(C(=O)OCCCCn3ccnc3)CC[C@]3(C)[C@H](C[C@@H](O)[C@@H]4[C@@]5(C)C(CC(=O)OC)OC(C)(C)C5CC[C@]43C)[C@@H]12` (stereo not given in full), for which the IC50 turned out to be 26 µM in the assay on HepG2; 44.3 µM in the assay with PC-3M; 75.2 µM in the assay on MCF7; 53.4 µM in the assay with PANC-1; 36.7 µM in the assay on A549.

On to `C=C(C)[C@@H]1CC[C@]2(C(=O)OCCCCCCCCCCn3cc(CCN)c4ccccc43)CC[C@]3(C)[C@H](C[C@@H](O)[C@@H]4[C@@]5(C)C(CC(=O)OC)OC(C)(C)C5CC[C@]43C)[C@@H]12` (stereo not given in full), for which the IC50 in the assay with HepG2 stood at 2.11 µM; with PC-3M, 5.7 µM; in the assay on MCF7, 25.5 µM; in the assay with PANC-1, 5.63 µM; in the assay on A549 it was 7.97 µM.

With `C=C(C)[C@@H]1CC[C@]2(C(=O)OCCCCCCn3ccnc3C)CC[C@]3(C)[C@H](C[C@@H](O)[C@@H]4[C@@]5(C)C(CC(=O)OC)OC(C)(C)C5CC[C@]43C)[C@@H]12` (stereo not given in full), the IC50 with HepG2 was 12 µM; with PC-3M, 20.9 µM; with MCF7 it was 29.9 µM; in the assay on PANC-1, 18.7 µM; in the assay on A549, 25.4 µM.

In the case of `C=C(C)[C@@H]1CC[C@]2(C(=O)OCCCCCCCCCCn3ccnc3CC)CC[C@]3(C)[C@H](C[C@@H](O)[C@@H]4[C@@]5(C)C(CC(=O)OC)OC(C)(C)C5CC[C@]43C)[C@@H]12` (stereo not given in full), the IC50 in the assay on HepG2 amounted to 6.97 µM; in the assay on PC-3M, 11.5 µM; in the assay with MCF7 it was 18.5 µM; with PANC-1, 10.6 µM; with A549 it was 18.5 µM.

Regarding `C=C(C)[C@@H]1CC[C@]2(C(=O)OCCCCn3cnc(C)c3)CC[C@]3(C)[C@H](C[C@H]4OC(=O)C[C@@H](O)[C@]5(C)[C@@H]4[C@@]3(C)CC[C@H]5C(=C)C)[C@@H]12`, the IC50 in the assay on HepG2 worked out at 16 µM; in the assay on PC-3M, 15.5 µM; in the assay with MCF7, 45.3 µM; with PANC-1, 29.2 µM; with A549 it was 20 µM.

For the compound `C=C(C)[C@@H]1CC[C@]2(C(=O)OCCCn3ccnc3)CC[C@]3(C)[C@H](C[C@@H](O)[C@@H]4[C@@]5(C)C(CC(=O)OC)OC(C)(C)C5CC[C@]43C)[C@@H]12` (stereo not given in full), the IC50 in the assay with HepG2 amounted to 27.2 µM; with PC-3M, 35.6 µM; in the assay with MCF7 it was 73.2 µM; in the assay on PANC-1, 56.5 µM; in the assay with A549, 34.8 µM.

For `C=C(C)[C@@H]1CC[C@]2(C(=O)OCCCCCn3cnc(C)c3)CC[C@]3(C)[C@H](C[C@@H](O)[C@@H]4[C@@]5(C)C(CC(=O)OC)OC(C)(C)C5CC[C@]43C)[C@@H]12` (stereo not given in full), the IC50 in the assay on HepG2 amounted to 14.1 µM; with PC-3M it was 30.1 µM; in the assay with MCF7, 60.8 µM; in the assay on PANC-1, 33.2 µM; with A549 it was 28.5 µM.

For the compound `C=C(C)[C@@H]1CC[C@]2(C(=O)OCCCCCn3ccnc3C)CC[C@]3(C)[C@H](C[C@H]4OC(=O)C[C@@H](O)[C@]5(C)[C@@H]4[C@@]3(C)CC[C@H]5C(=C)C)[C@@H]12`, the IC50 was found to be 8.89 µM in the assay with HepG2; 12.4 µM in the assay with PC-3M; 46 µM with MCF7; 14.2 µM with PANC-1; 15.9 µM with A549.

On to `C=C(C)[C@@H]1CC[C@]2(C(=O)OCCCCn3ccnc3CC)CC[C@]3(C)[C@H](C[C@H]4OC(=O)C[C@@H](O)[C@]5(C)[C@@H]4[C@@]3(C)CC[C@H]5C(=C)C)[C@@H]12`, for which the IC50 with HepG2 was 14.6 µM; in the assay on PC-3M it was 12.1 µM; in the assay with MCF7, 91.1 µM; in the assay on PANC-1 it was 16.1 µM; in the assay on A549 it was 19.5 µM.

As to `C=C(C)[C@@H]1CC[C@]2(C(=O)OCCCCCCCCCCn3ccnc3)CC[C@]3(C)[C@H](C[C@H]4OC(=O)C[C@@H](O)[C@]5(C)[C@@H]4[C@@]3(C)CC[C@H]5C(=C)C)[C@@H]12`, the IC50 amounted to 4.23 µM in the assay on HepG2; 11.8 µM in the assay on PC-3M; 44.9 µM in the assay on MCF7; 11.3 µM in the assay with PANC-1; 17.2 µM in the assay on A549.

Regarding `C=C(C)[C@@H]1CC[C@]2(C(=O)OCCCCn3ccnc3CC)CC[C@]3(C)[C@H](C[C@@H](O)[C@@H]4[C@@]5(C)C(CC(=O)OC)OC(C)(C)C5CC[C@]43C)[C@@H]12` (stereo not given in full), the IC50 in the assay with HepG2 came out at 15.7 µM; in the assay with PC-3M, 25.9 µM; in the assay with MCF7 it was 40.3 µM; in the assay with PANC-1, 31.5 µM; in the assay on A549 it was 28.5 µM.

For the compound `C=C(C)[C@@H]1CC[C@]2(C(=O)OCCCCn3ccnc3C)CC[C@]3(C)[C@H](C[C@@H](O)[C@@H]4[C@@]5(C)C(CC(=O)OC)OC(C)(C)C5CC[C@]43C)[C@@H]12` (stereo not given in full), the IC50 was determined as 21.7 µM in the assay on HepG2; 36 µM in the assay on PC-3M; 67.3 µM in the assay on MCF7; 48.3 µM in the assay with PANC-1; 31.4 µM with A549.

In the case of `C=C(C)[C@@H]1CC[C@]2(C(=O)OCCCCCBr)CC[C@]3(C)[C@H](C[C@H]4OC(=O)C[C@@H](O)[C@]5(C)[C@@H]4[C@@]3(C)CC[C@H]5C(=C)C)[C@@H]12`, the IC50 in the assay with HepG2 amounted to 14.3 µM; in the assay with PC-3M, 14.5 µM; in the assay with MCF7, 56.1 µM; with PANC-1, 43.1 µM; in the assay on A549 it was 19.8 µM.

On to `C=C(C)[C@@H]1CC[C@]2(C(=O)OCCCCCCn3ccnc3)CC[C@]3(C)[C@H](C[C@@H](O)[C@@H]4[C@@]5(C)C(CC(=O)OC)OC(C)(C)C5CC[C@]43C)[C@@H]12` (stereo not given in full), for which the IC50 came to 15.8 µM in the assay with HepG2; 19.7 µM in the assay on PC-3M; 45.5 µM in the assay on MCF7; 25.9 µM in the assay on PANC-1; 26.1 µM with A549.

Turning to `C=C(C)[C@@H]1CC[C@]2(C(=O)OCCCCn3cc(CCN)c4ccccc43)CC[C@]3(C)[C@H](C[C@H]4OC(=O)C[C@@H](O)[C@]5(C)[C@@H]4[C@@]3(C)CC[C@H]5C(=C)C)[C@@H]12`, the IC50 was 1.02 µM with HepG2; 6.64 µM in the assay on PC-3M; 11.7 µM in the assay with MCF7; 8.73 µM with PANC-1; 6.72 µM in the assay with A549.

In the case of `C=C(C)[C@@H]1CC[C@]2(C(=O)OCCCCCCn3cncn3)CC[C@]3(C)[C@H](C[C@@H](O)[C@@H]4[C@@]5(C)C(CC(=O)OC)OC(C)(C)C5CC[C@]43C)[C@@H]12` (stereo not given in full), the IC50 with HepG2 amounted to 37.8 µM; with PC-3M, 27.4 µM; in the assay on MCF7, 79.9 µM; in the assay with PANC-1, 59.8 µM; in the assay on A549, 52.7 µM.

Regarding `C=C(C)[C@@H]1CC[C@]2(C(=O)OCCCn3cc(CCN)c4ccccc43)CC[C@]3(C)[C@H](C[C@@H](O)[C@@H]4[C@@]5(C)C(CC(=O)OC)OC(C)(C)C5CC[C@]43C)[C@@H]12` (stereo not given in full), the IC50 was 2.51 µM with HepG2; 7.6 µM in the assay with PC-3M; 8.05 µM with MCF7; 7.04 µM with PANC-1; 7.67 µM with A549.

Take `C=C(C)[C@@H]1CC[C@]2(C(=O)OCCCn3cnc(C)c3)CC[C@]3(C)[C@H](C[C@@H](O)[C@@H]4[C@@]5(C)C(CC(=O)OC)OC(C)(C)C5CC[C@]43C)[C@@H]12` (stereo not given in full): the IC50 with HepG2 stood at 21.6 µM; with PC-3M, 30.6 µM; in the assay with MCF7 it was 71.9 µM; with PANC-1 it was 49.2 µM; in the assay with A549, 31.5 µM.
